Test system: wild-type SARS-CoV-2 (wuhan-HU-1 variant)
Assay type: cell-based

## C[C@@H]1O[C@@H](O[C@H]2[C@H](O[C@H]3CC[C@]4(C)[C@H]5CC=C6[C@@H]7CC(C)(C)CC[C@]7(C(=O)NCc7ccccc7)CC[C@@]6(C)[C@]5(C)CC[C@H]4C3(C)C)O[C@H](CO)[C@@H](O[C@@H]3O[C@@H](C)[C@H](O)[C@@H](O)[C@H]3O)[C@@H]2O)[C@H](O)[C@H](O)[C@H]1O [Compound 12f, N-{3β-O-[2,4-di-O-(a-L-rhamnopyranosyl)-β-D-glucopyranosyl]-olean-12-en-28-oyl}-benzylamine]
  Inhibition of SARS-CoV-2 infection by IFA, NP expression: dose-dependent manner
